Results reported in US7829585B2, “Antifungal agent containing pyridine derivative” (Eisai R&D Management Co., Ltd., priority 2005, dated 2010).
Converted amounts (≈) assume the structure as drawn.

Key:
[1] = tested on: C. albicans E81022 strain; test: Anti-Candida activity, MIC measurement (broth dilution, visual inspection); type: cell-based; details: C. albicans E81022, RPMI1640, 48 hours at 35° C.; for MIC: Candida albicans, E81022STRAIN, read-out: Anti-Candida activity (minimum growth inhibitory concentration, MIC)
Description: (§1) For the C. albicans E81022 strain, a fungal suspension from a standing culture 48 hours at 30° C. in a Sabouraud dextrose liquid culture medium (SDB) was diluted 10000-fold with 1.3-times concentrated RPMI1640 medium to prepare a fungal suspension containing 1 to 2×10^4 cells/ml. For the A. fumigatus Tsukuba strain, −80° C. stored strain was diluted 1000-fold with 1.3-times concentrated RPMI1640 medium to prepare a fungal suspension containing 2 to 3×10^3 cells/ml.
(§2) Using a U-shaped bottomed 96-well plates, 8 samples/plate (A to H) of sample dilution solutions were prepared. On the first row was dispensed 240 μl of sterile distilled water, and on the 2nd to 12th row were dispersed 125 μL of 4% dimethylsulfoxide solution. Weighed sample was dissolved in dimethylsulfoxide to prepare a 5 mg/ml solution followed by adding 10 μL of the solutions to the first row of the prepared plates and preparing 12-step serial 2-fold dilutions (125 μL of solution+125 μL of 4% dimethylsulfoxide solution) on the plates.
(§3) The fungal suspension prepared in (1) was used in the amount of 75 μL/well to inoculate the flat-bottomed 96-well plates containing 25 μL/well of the test compound prepared in (2), and a standing culture was carried out aerobically for 48 hours at 35° C.

[2] = tested on: A. fumigatus Tsukuba strain; test: Anti-Aspergillus activity, MIC measurement (broth dilution, visual inspection); type: cell-based; details: RPMI1640, 48 hours at 35° C., read-out: Anti-Aspergillus activity (minimum growth inhibitory concentration, MIC)
Description: as §1, §2, §3

Compound	MIC [1] [µg/mL]	MIC [2] [µg/mL]	Anti-Candida activity (minimum growth inhibitory concentration, MIC) [1] [µg/mL]
CC=CCOc1ccc2cc(CNC(=O)c3cccnc3N)oc2c1 [Example 69, 2-Amino-N-(6-but-2-enyloxy-benzofuran-2-ylmethyl)-nicotinamide]	0.39 (≈ 1.16 µM)	0.39 (≈ 1.16 µM)	–
COCc1ccc(C(=O)NCc2cc3ccc(OCC4CC4)cc3[nH]2)c(N)n1 [Example 73, 2-Amino-N-(6-cyclopropylmethoxy-1H-indol-2-ylmethyl)-6-methoxymethyl-nicotinamide]	–	25 (≈ 65.7 µM)	–
CCOc1ccc2cc(CNC(=O)c3cccnc3N)oc2c1 [Example 59, 2-Amino-N-(6-ethoxy-benzofuran-2-ylmethyl)-nicotinamide]	0.78 (≈ 2.51 µM)	3.13 (≈ 10.1 µM)	–
COCc1ccc2cc(CNC(=O)c3ccc(COC)nc3N)oc2c1 [Example 47, 2-Amino-6-methoxymethyl-N-(6-methoxymethyl-benzofuran-2-ylmethyl)-nicotinamide]	0.78 (≈ 2.19 µM)	1.56 (≈ 4.39 µM)	–
COCc1ccc(C(=O)NCc2cc3ccc(OCc4ccccc4)cc3s2)c(N)n1 [Example 77, 2-Amino-N-(6-benzyloxy-benzo[b]thiophen-2-ylmethyl)-6-methoxymethyl-nicotinamide]	0.39 (≈ 0.9 µM)	3.13 (≈ 7.22 µM)	–
C#CCOc1ccc2cc(CNC(=O)c3ccc(COC)nc3N)oc2c1 [Example 39, 2-Amino-6-methoxymethyl-N-(6-prop-2-ynyloxy-benzofuran-2-ylmethyl)-nicotinamide]	1.56 (≈ 4.27 µM)	1.56 (≈ 4.27 µM)	–
COCc1ccc(C(=O)NCc2cc3ccc(OCc4cccc(F)c4)cc3o2)c(N)n1 [Example 43, 2-Amino-N-(6-(3-fluoro-benzyloxy)-benzofuran-2-ylmethyl)-6-methoxymethyl-nicotinamide]	0.78 (≈ 1.79 µM)	6.25 (≈ 14.4 µM)	–
Nc1ccc(C(=O)NCc2cc3cc(OCC4CC4)ccc3o2)c(N)n1 [Example 53, 2,6-Diamino-N-(5-cyclopropylmethoxy-benzofuran-2-ylmethyl)-nicotinamide]	6.25 (≈ 17.7 µM)	6.25 (≈ 17.7 µM)	–
CC(C)COc1ccc2cc(CNC(=O)c3ccc(N)nc3N)oc2c1 [Example 13, 2,6-Diamino-N-(6-isobutoxy-benzofuran-2-ylmethyl)-nicotinamide]	0.39 (≈ 1.1 µM)	1.56 (≈ 4.4 µM)	–
2,6-Diamino-N-(6-(2-phenoxy-ethoxy)-benzofuran-2-ylmethyl)-nicotinamide [Example 80]	–	–	3.13
CCCCCOc1ccc2cc(CNC(=O)c3ccc(N)nc3N)oc2c1 [Example 12, 2,6-Diamino-N-(6-pentyloxy-benzofuran-2-ylmethyl)-nicotinamide]	0.78 (≈ 2.12 µM)	1.56 (≈ 4.23 µM)	–
CCC(C)COc1ccc2cc(CNC(=O)c3ccc(COC)nc3N)oc2c1 (stereo not shown) [Example 29, 2-Amino-6-methoxymethyl-N-(6-(2-methyl-butoxy)-benzofuran-2-ylmethyl)-nicotinamide]	1.56 (≈ 3.92 µM)	6.25 (≈ 15.7 µM)	–
CC(C)=CCOc1ccc2cc(CNC(=O)c3ccc(N)nc3N)oc2c1 [Example 17, 2,6-Diamino-N-(6-(3-methyl-but-2-enyloxy)-benzofuran-2-ylmethyl)-nicotinamide]	0.78 (≈ 2.13 µM)	–	–
COCc1ccc(C(=O)NCc2cc3ccc(OCc4cccnc4)cc3o2)c(N)n1 [Example 45, 2-Amino-6-methoxymethyl-N-(6-(pyridin-3-ylmethoxy)-benzofuran-2-ylmethyl)-nicotinamide]	12.5 (≈ 29.9 µM)	12.5 (≈ 29.9 µM)	–
Nc1ccc(C(=O)NCc2cc3ccc(OCc4ccccc4F)cc3o2)c(N)n1 [Example 23, 2,6-Diamino-N-(6-(2-fluoro-benzyloxy)-benzofuran-2-ylmethyl)-nicotinamide]	–	–	1.56
COCc1ccc(C(=O)NCc2cc3ccc(OCc4ccccn4)cc3o2)c(N)n1 [Example 44, 2-Amino-6-methoxymethyl-N-(6-(pyridin-2-ylmethoxy)-benzofuran-2-ylmethyl)-nicotinamide]	0.78 (≈ 1.86 µM)	6.25 (≈ 14.9 µM)	–

Compound	MIC [1] [µg/mL]	MIC [2] [µg/mL]	Anti-Candida activity (minimum growth inhibitory concentration, MIC) [1] [µg/mL]
CCC(C)COc1ccc2cc(CNC(=O)c3cccnc3N)oc2c1 (stereo not shown) [Example 65, 2-Amino-N-(6-(2-methyl-butoxy)-benzofuran-2-ylmethyl)-nicotinamide]	1.56 (≈ 4.41 µM)	3.13 (≈ 8.86 µM)	–
Nc1ccc(C(=O)NCc2cc3cc(OCc4ccccc4)ccc3o2)c(N)n1 [Example 51, 2,6-Diamino-N-(5-benzyloxy-benzofuran-2-ylmethyl)-nicotinamide]	0.2 (≈ 0.515 µM)	0.78 (≈ 2.01 µM)	–
Nc1ncccc1C(=O)NCc1cc2ccc(OCC3CC3)cc2o1 [Example 72, 2-Amino-N-(6-cyclopropylmethoxy-benzofuran-2-ylmethyl)-nicotinamide]	0.78 (≈ 2.31 µM)	1.56 (≈ 4.62 µM)	–
COCc1ccc(C(=O)NCc2cc3ccc(OCc4ccncc4)cc3o2)c(N)n1 [Example 46, 2-Amino-6-methoxymethyl-N-(6-(pyridin-4-ylmethoxy)-benzofuran-2-ylmethyl)-nicotinamide]	0.39 (≈ 0.932 µM)	–	–
COCc1ccc(C(=O)NCc2cc3ccc(OCc4ccccc4F)cc3o2)c(N)n1 [Example 42, 2-Amino-N-(6-(2-fluoro-benzyloxy)-benzofuran-2-ylmethyl)-6-methoxymethyl-nicotinamide]	1.56 (≈ 3.58 µM)	3.13 (≈ 7.19 µM)	–
COCc1ccc(C(=O)NCc2cc3ccc(OC)cc3o2)c(N)n1 [Example 24, 2-Amino-N-(6-methoxy-benzofuran-2-ylmethyl)-6-methoxymethyl-nicotinamide]	6.25 (≈ 18.3 µM)	3.13 (≈ 9.17 µM)	–
COCCOc1ccc2cc(CNC(=O)c3ccc(COC)nc3N)oc2c1 [Example 40, 2-Amino-N-(6-(2-methoxy-ethoxy)-benzofuran-2-ylmethyl)-6-methoxymethyl-nicotinamide]	3.13 (≈ 8.12 µM)	3.13 (≈ 8.12 µM)	–
CCOCCOc1ccc2cc(CNC(=O)c3ccc(COC)nc3N)oc2c1 [Example 41, 2-Amino-N-(6-(2-ethoxy-ethoxy)-benzofuran-2-ylmethyl)-6-methoxymethyl-nicotinamide]	3.13 (≈ 7.84 µM)	–	–
CC#CCOc1ccc2cc(CNC(=O)c3ccc(N)nc3N)oc2c1 [Example 8, 2,6-Diamino-N-(6-but-2-ynyloxy-benzofuran-2-ylmethyl)-nicotinamide]	1.56 (≈ 4.45 µM)	–	–
COCc1ccc(C(=O)NCc2cc3cc(Br)ccc3o2)c(N)n1 [Example 79, 2-Amino-N-(5-bromo-benzofuran-2-ylmethyl)-6-methoxymethyl-nicotinamide]	–	12.5 (≈ 32 µM)	–
CCCOc1ccc2cc(CNC(=O)c3ccc(COC)nc3N)oc2c1 [Example 37, 2-Amino-6-methoxymethyl-N-(6-propoxy-benzofuran-2-ylmethyl)-nicotinamide]	0.2 (≈ 0.541 µM)	–	–
COCc1ccc(C(=O)NCc2cc3ccc(OCC4CCCCO4)cc3o2)c(N)n1 (stereo not shown) [Example 33, 2-Amino-6-methoxymethyl-N-(6-(tetrahydro-pyran-2-ylmethoxy)-benzofuran-2-ylmethyl)-nicotinamide]	12.5 (≈ 29.4 µM)	–	–
CC(C)CCOc1ccc2cc(CNC(=O)c3ccc(N)nc3N)oc2c1 [Example 14, 2,6-Diamino-N-(6-(3-methyl-butoxy)-benzofuran-2-ylmethyl)-nicotinamide]	1.56 (≈ 4.23 µM)	–	–
CCOCc1ccc2oc(CNC(=O)c3ccc(COC)nc3N)cc2c1 [Example 81, 2-Amino-N-(5-ethoxymethyl-benzofuran-2-ylmethyl)-6-methoxymethyl-nicotinamide]	–	6.25 (≈ 16.9 µM)	–
CCCCOc1ccc2cc(CNC(=O)c3ccc(COC)nc3N)oc2c1 [Example 25, 2-Amino-N-(6-butoxy-benzofuran-2-ylmethyl)-6-methoxymethyl-nicotinamide]	0.78 (≈ 2.03 µM)	–	–
